# Patent US9340590B2 (priority 2011, dated 2016)
# pIC50: −log10 of the molar value. Like-named read-outs stand apart in the source and are kept apart here. Positions of bridges follow the written chain, without caps; N, C: chain ends. Non-standard residues stand in square brackets, D forms with d. Residues, ends and D or L forms follow the SMILES beside them. Cha = N[C@@H](CC1CCCCC1)C(=O)O
# Columns and labels:
# Assay in all cases: cell-based
# hNav1.7 = hNav1.7 (Homo sapiens, UniProt Q15858); format: cell-based
# hNav1.7, sequence (Q15858 whole entry, looked up): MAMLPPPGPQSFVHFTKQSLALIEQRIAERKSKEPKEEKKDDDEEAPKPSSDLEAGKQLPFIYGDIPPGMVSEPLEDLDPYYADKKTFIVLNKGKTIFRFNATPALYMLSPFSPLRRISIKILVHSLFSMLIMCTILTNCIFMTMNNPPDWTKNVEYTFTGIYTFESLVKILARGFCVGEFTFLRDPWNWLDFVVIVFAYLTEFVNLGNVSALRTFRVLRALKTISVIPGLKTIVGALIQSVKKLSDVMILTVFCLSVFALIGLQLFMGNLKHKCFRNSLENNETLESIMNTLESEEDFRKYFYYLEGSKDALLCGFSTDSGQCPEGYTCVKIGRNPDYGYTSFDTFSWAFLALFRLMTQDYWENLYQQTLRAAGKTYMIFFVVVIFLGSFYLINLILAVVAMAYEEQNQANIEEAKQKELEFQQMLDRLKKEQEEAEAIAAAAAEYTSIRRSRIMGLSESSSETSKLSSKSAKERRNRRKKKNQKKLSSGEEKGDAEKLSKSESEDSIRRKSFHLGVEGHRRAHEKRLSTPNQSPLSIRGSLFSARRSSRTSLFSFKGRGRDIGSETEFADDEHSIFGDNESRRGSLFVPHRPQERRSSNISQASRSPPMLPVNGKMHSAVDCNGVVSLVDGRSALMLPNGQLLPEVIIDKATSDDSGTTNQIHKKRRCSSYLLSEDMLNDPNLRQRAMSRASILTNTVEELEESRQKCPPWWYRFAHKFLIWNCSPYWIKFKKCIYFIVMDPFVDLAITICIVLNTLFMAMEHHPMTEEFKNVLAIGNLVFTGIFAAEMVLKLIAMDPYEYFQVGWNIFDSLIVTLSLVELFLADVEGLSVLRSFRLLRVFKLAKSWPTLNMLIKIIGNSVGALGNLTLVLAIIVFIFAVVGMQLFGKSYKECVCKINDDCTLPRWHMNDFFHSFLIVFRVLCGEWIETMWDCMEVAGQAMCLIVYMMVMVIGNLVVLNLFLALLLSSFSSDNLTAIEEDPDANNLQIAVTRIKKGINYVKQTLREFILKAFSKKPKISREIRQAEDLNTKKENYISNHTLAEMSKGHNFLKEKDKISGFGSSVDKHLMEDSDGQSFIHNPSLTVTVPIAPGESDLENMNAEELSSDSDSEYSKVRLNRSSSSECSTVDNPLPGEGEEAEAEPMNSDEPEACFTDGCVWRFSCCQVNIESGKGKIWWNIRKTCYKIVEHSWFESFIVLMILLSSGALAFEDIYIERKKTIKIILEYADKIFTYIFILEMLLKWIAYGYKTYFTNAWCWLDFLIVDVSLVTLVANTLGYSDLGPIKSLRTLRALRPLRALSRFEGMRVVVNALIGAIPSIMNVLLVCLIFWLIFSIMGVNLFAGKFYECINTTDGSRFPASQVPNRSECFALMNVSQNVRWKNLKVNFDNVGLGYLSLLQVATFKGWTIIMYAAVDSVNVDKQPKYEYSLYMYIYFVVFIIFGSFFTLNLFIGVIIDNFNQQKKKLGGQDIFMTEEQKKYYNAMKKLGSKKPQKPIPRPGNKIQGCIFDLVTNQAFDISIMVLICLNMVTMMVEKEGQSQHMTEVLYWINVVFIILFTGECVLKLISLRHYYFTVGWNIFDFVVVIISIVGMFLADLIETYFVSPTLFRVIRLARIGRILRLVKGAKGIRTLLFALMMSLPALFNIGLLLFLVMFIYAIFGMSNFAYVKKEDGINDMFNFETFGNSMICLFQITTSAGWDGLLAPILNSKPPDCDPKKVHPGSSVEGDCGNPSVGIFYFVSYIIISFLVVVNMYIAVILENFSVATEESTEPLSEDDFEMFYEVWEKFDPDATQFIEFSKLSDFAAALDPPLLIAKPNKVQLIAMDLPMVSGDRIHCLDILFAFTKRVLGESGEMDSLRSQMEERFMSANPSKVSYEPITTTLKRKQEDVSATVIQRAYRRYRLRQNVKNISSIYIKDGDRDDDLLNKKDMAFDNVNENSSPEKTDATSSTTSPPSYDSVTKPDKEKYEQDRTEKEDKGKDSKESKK
# hNav1.5 = hNav1.5 (Homo sapiens, UniProt Q14524)
# hNav1.5, sequence (Q14524 whole entry, looked up): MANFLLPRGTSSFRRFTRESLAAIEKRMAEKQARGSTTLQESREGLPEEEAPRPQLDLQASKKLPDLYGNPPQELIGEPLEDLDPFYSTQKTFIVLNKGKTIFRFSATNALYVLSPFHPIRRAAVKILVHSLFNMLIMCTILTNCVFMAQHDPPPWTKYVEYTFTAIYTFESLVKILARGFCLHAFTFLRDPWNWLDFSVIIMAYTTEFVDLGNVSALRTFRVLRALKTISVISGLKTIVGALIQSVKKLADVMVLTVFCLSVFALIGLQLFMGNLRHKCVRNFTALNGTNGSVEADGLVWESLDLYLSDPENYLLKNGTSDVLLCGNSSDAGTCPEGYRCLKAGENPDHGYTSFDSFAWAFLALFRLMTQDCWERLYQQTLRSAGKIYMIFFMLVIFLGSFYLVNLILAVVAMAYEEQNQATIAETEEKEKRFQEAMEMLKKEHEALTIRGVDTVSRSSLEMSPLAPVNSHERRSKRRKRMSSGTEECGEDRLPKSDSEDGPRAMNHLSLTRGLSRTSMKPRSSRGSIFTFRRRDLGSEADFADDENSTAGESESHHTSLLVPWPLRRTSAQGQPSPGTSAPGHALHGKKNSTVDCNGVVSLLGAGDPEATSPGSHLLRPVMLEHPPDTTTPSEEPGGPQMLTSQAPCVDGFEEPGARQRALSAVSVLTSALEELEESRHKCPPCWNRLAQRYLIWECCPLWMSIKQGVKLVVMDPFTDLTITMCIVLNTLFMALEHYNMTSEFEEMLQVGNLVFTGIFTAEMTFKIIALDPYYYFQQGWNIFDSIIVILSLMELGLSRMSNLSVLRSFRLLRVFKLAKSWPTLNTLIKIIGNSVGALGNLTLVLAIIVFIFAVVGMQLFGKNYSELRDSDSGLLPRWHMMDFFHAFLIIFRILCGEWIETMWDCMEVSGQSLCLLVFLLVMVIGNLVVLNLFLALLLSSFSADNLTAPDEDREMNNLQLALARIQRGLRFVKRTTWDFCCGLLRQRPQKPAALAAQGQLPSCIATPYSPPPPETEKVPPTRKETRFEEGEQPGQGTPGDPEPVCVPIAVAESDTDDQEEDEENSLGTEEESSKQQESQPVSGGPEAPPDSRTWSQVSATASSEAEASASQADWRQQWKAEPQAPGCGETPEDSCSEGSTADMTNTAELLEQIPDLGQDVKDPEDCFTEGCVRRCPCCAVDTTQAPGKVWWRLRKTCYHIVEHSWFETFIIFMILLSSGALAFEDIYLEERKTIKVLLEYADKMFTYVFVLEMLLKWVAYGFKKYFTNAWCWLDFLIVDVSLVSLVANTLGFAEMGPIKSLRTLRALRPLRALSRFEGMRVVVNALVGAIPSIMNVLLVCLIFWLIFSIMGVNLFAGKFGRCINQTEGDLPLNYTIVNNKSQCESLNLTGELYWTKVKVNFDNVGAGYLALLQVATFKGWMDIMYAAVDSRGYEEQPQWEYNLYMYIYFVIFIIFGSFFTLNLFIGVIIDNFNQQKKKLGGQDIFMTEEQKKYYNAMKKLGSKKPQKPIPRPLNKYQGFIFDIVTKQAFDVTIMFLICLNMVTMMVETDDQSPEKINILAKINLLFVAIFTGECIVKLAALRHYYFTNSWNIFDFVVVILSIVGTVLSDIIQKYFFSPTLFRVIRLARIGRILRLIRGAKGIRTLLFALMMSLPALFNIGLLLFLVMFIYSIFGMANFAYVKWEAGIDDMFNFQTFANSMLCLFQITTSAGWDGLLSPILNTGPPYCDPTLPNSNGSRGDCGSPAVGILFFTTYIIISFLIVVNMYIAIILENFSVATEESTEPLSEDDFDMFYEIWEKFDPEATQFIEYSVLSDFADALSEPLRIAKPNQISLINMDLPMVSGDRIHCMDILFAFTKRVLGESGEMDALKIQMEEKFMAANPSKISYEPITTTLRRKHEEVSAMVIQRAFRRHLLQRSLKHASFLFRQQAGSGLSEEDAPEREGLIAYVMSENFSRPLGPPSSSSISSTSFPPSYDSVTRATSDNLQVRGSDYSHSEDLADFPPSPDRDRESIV
# hNav1.3 = hNav1.3 (Homo sapiens, UniProt Q9NY46); details: IonWorks Quattro, use-dependent protocol, hNav1.3; read-out: IWQ Use Nav1.3
# [1] = IonWorks Quattro, use-dependent protocol, hNav1.7, read-out: IWQ Use Nav1.7
# [2] = IonWorks Quattro, use-dependent protocol, hNav1.5, read-out: IWQ Use Nav1.5
smiles,measurement,setting,value
CC[C@H](C)[C@@H]1NC(=O)[C@@H]2CSSC[C@@H]3NC(=O)[C@H](C(C)C)NC(=O)[C@H](CC(C)C)NC(=O)[C@H](CC(N)=O)NC(=O)[C@@H]4CCCN4C(=O)[C@H](CCCNC(=N)N)NC(=O)[C@H](CSSC[C@H](NC(=O)[C@@H](N)CC(=O)O)C(=O)N[C@@H](CC(C)C)C(=O)NCC(=O)N[C@@H](CCC(C)C)C(=O)N[C@@H](CCSC)C(=O)N[C@@H](CCCNC(=N)N)C(=O)N[C@@H](CCCCN)C(=O)N2)NC(=O)[C@H](CSSC[C@@H](C(=O)N[C@@H](CCCCN)C(=O)N[C@@H](Cc2ccc(O)cc2)C(=O)N[C@H](C(=O)N[C@@H](Cc2ccccc2)C(N)=O)C(C)C)NC(=O)[C@H](Cc2c[nH]c4ccccc24)NC(=O)[C@H](CCCCN)NC(=O)[C@H](Cc2c[nH]cn2)NC(=O)[C@H]([C@@H](C)O)NC(=O)[C@H](CCCNC(=N)N)NC(=O)[C@H](CO)NC3=O)NC(=O)[C@H](CCCCN)NC(=O)[C@H](CC(=O)O)NC(=O)[C@H](CC(N)=O)NC(=O)[C@H](CC(=O)O)NC(=O)[C@@H]2CCCN2C1=O [compound 679],pIC50,hNav1.7; [1],7.07
same,pIC50,hNav1.5; [2],< 5.30
same,pIC50,hNav1.3,6.62
"CC[C@H](C)[C@@H]1NC(=O)[C@@H]2CSSC[C@@H]3NC(=O)[C@H](C(C)C)NC(=O)[C@H](CC(C)C)NC(=O)[C@H](CC(N)=O)NC(=O)[C@@H]4CCCN4C(=O)[C@H](CCCNC(=N)N)NC(=O)[C@H](CSSC[C@H](NC(=O)[C@@H](N)CC(=O)O)C(=O)N[C@@H](CC(C)C)C(=O)NCC(=O)N[C@@H](CC4CCCCC4)C(=O)N[C@@H](Cc4ccccc4)C(=O)N[C@@H](CCCNC(=N)N)C(=O)N[C@@H](CCCCN)C(=O)N2)NC(=O)[C@H](CSSC[C@@H](C(=O)N[C@@H](CCCCN)C(=O)N[C@@H](Cc2ccc(O)cc2)C(=O)N[C@H](C(=O)N[C@@H](Cc2ccccc2)C(N)=O)C(C)C)NC(=O)[C@H](Cc2c[nH]c4ccccc24)NC(=O)[C@H](CCCCN)NC(=O)[C@H](Cc2c[nH]cn2)NC(=O)[C@H]([C@@H](C)O)NC(=O)[C@H](CCCNC(=N)N)NC(=O)[C@H](CO)NC3=O)NC(=O)[C@H](CCCCN)NC(=O)[C@H](CC(=O)O)NC(=O)[C@H](CC(N)=O)NC(=O)[C@H](CC(=O)O)NC(=O)[C@@H]2CCCN2C1=O [compound 680] (H-DCLG[Cha]FRKCIPDNDKCCRPNLVCSRTHKWCKYVF-NH2; disulfide 2-17, 9-23, 16-30)",pIC50,hNav1.7,7.72
same,pIC50,hNav1.5; [2],5.46
same,pIC50,hNav1.3,7.49
CC[C@H](C)[C@@H]1NC(=O)[C@@H]2CSSC[C@@H]3NC(=O)[C@H](C(C)C)NC(=O)[C@H](CC(C)C)NC(=O)[C@H](CC(N)=O)NC(=O)[C@@H]4CCCN4C(=O)[C@H](CCCNC(=N)N)NC(=O)[C@H](CSSC[C@H](NC(=O)[C@@H](N)CC(=O)O)C(=O)N[C@@H](CC(C)C)C(=O)NCC(=O)N[C@@H](CC4CCCCC4)C(=O)N[C@@H](CC(C)C)C(=O)N[C@@H](CCCNC(=N)N)C(=O)N[C@@H](CCCCN)C(=O)N2)NC(=O)[C@H](CSSC[C@@H](C(=O)N[C@@H](CCCCN)C(=O)N[C@@H](Cc2ccc(O)cc2)C(=O)N[C@H](C(=O)N[C@@H](Cc2ccccc2)C(N)=O)C(C)C)NC(=O)[C@H](Cc2c[nH]c4ccccc24)NC(=O)[C@H](CCCCN)NC(=O)[C@H](Cc2c[nH]cn2)NC(=O)[C@H]([C@@H](C)O)NC(=O)[C@H](CCCNC(=N)N)NC(=O)[C@H](CO)NC3=O)NC(=O)[C@H](CCCCN)NC(=O)[C@H](CC(=O)O)NC(=O)[C@H](CC(N)=O)NC(=O)[C@H](CC(=O)O)NC(=O)[C@@H]2CCCN2C1=O [compound 681],pIC50,hNav1.7; [1],7.64
same,pIC50,hNav1.5; [2],< 5.30
same,pIC50,hNav1.3,7.10
CC[C@H](C)[C@@H]1NC(=O)[C@@H]2CSSC[C@@H]3NC(=O)[C@H](C(C)C)NC(=O)[C@H](CC(C)C)NC(=O)[C@H](CC(N)=O)NC(=O)[C@@H]4CCCN4C(=O)[C@H](CCCNC(=N)N)NC(=O)[C@H](CSSC[C@H](NC(=O)[C@@H](N)CC(=O)O)C(=O)N[C@@H](CC(C)C)C(=O)NCC(=O)N[C@@H](Cc4cccs4)C(=O)N[C@@H](CCSC)C(=O)N[C@@H](CCCNC(=N)N)C(=O)N[C@@H](CCCCN)C(=O)N2)NC(=O)[C@H](CSSC[C@@H](C(=O)N[C@@H](CCCCN)C(=O)N[C@@H](Cc2ccc(O)cc2)C(=O)N[C@H](C(=O)N[C@@H](Cc2ccccc2)C(N)=O)C(C)C)NC(=O)[C@H](Cc2c[nH]c4ccccc24)NC(=O)[C@H](CCCCN)NC(=O)[C@H](Cc2c[nH]cn2)NC(=O)[C@H]([C@@H](C)O)NC(=O)[C@H](CCCNC(=N)N)NC(=O)[C@H](CO)NC3=O)NC(=O)[C@H](CCCCN)NC(=O)[C@H](CC(=O)O)NC(=O)[C@H](CC(N)=O)NC(=O)[C@H](CC(=O)O)NC(=O)[C@@H]2CCCN2C1=O [compound 682],pIC50,hNav1.7; [1],6.96
same,pIC50,hNav1.5; [2],< 5.30
same,pIC50,hNav1.3,6.55
CC[C@H](C)[C@@H]1NC(=O)[C@@H]2CSSC[C@@H]3NC(=O)[C@H](C(C)C)NC(=O)[C@H](CC(C)C)NC(=O)[C@H](CC(N)=O)NC(=O)[C@@H]4CCCN4C(=O)[C@H](CCCNC(=N)N)NC(=O)[C@H](CSSC[C@H](NC(=O)[C@@H](N)CC(=O)O)C(=O)N[C@@H](CC(C)C)C(=O)NCC(=O)N[C@@H](C4CCCC4)C(=O)N[C@@H](CCSC)C(=O)N[C@@H](CCCNC(=N)N)C(=O)N[C@@H](CCCCN)C(=O)N2)NC(=O)[C@H](CSSC[C@@H](C(=O)N[C@@H](CCCCN)C(=O)N[C@@H](Cc2ccc(O)cc2)C(=O)N[C@H](C(=O)N[C@@H](Cc2ccccc2)C(N)=O)C(C)C)NC(=O)[C@H](Cc2c[nH]c4ccccc24)NC(=O)[C@H](CCCCN)NC(=O)[C@H](Cc2cnc[nH]2)NC(=O)[C@H]([C@@H](C)O)NC(=O)[C@H](CCCNC(=N)N)NC(=O)[C@H](CO)NC3=O)NC(=O)[C@H](CCCCN)NC(=O)[C@H](CC(=O)O)NC(=O)[C@H](CC(N)=O)NC(=O)[C@H](CC(=O)O)NC(=O)[C@@H]2CCCN2C1=O [compound 683],pIC50,hNav1.7; [1],6.64
same,pIC50,hNav1.5; IWQ Use Nav1.5,< 5.30
same,pIC50,hNav1.3,6.20
CC[C@H](C)[C@@H]1NC(=O)[C@@H]2CSSC[C@@H]3NC(=O)[C@H](C(C)C)NC(=O)[C@H](CC(C)C)NC(=O)[C@H](CC(N)=O)NC(=O)[C@@H]4CCCN4C(=O)[C@H](CCCNC(=N)N)NC(=O)[C@H](CSSC[C@H](NC(=O)[C@@H](N)CC(=O)O)C(=O)N[C@@H](CC(C)C)C(=O)NCC(=O)N[C@@H](C4CCCCC4)C(=O)N[C@@H](CCSC)C(=O)N[C@@H](CCCNC(=N)N)C(=O)N[C@@H](CCCCN)C(=O)N2)NC(=O)[C@H](CSSC[C@@H](C(=O)N[C@@H](CCCCN)C(=O)N[C@@H](Cc2ccc(O)cc2)C(=O)N[C@H](C(=O)N[C@@H](Cc2ccccc2)C(N)=O)C(C)C)NC(=O)[C@H](Cc2c[nH]c4ccccc24)NC(=O)[C@H](CCCCN)NC(=O)[C@H](Cc2cnc[nH]2)NC(=O)[C@H]([C@@H](C)O)NC(=O)[C@H](CCCNC(=N)N)NC(=O)[C@H](CO)NC3=O)NC(=O)[C@H](CCCCN)NC(=O)[C@H](CC(=O)O)NC(=O)[C@H](CC(N)=O)NC(=O)[C@H](CC(=O)O)NC(=O)[C@@H]2CCCN2C1=O [compound 684],pIC50,hNav1.7; [1],6.89
same,pIC50,hNav1.5; [2],< 5.30
same,pIC50,hNav1.3,6.44
CC[C@H](C)[C@@H]1NC(=O)[C@@H]2CSSC[C@@H]3NC(=O)[C@H](C(C)C)NC(=O)[C@H](CC(C)C)NC(=O)[C@H](CC(N)=O)NC(=O)[C@@H]4CCCN4C(=O)[C@H](CCCNC(=N)N)NC(=O)[C@H](CSSC[C@H](NC(=O)[C@@H](N)CC(=O)O)C(=O)N[C@@H](CC(C)C)C(=O)NCC(=O)N[C@@H](Cc4ccc(C(=O)c5ccccc5)cc4)C(=O)N[C@@H](CCSC)C(=O)N[C@@H](CCCNC(=N)N)C(=O)N[C@@H](CCCCN)C(=O)N2)NC(=O)[C@H](CSSC[C@@H](C(=O)N[C@@H](CCCCN)C(=O)N[C@@H](Cc2ccc(O)cc2)C(=O)N[C@H](C(=O)N[C@@H](Cc2ccccc2)C(N)=O)C(C)C)NC(=O)[C@H](Cc2c[nH]c4ccccc24)NC(=O)[C@H](CCCCN)NC(=O)[C@H](Cc2c[nH]cn2)NC(=O)[C@H]([C@@H](C)O)NC(=O)[C@H](CCCNC(=N)N)NC(=O)[C@H](CO)NC3=O)NC(=O)[C@H](CCCCN)NC(=O)[C@H](CC(=O)O)NC(=O)[C@H](CC(N)=O)NC(=O)[C@H](CC(=O)O)NC(=O)[C@@H]2CCCN2C1=O [compound 685],pIC50,hNav1.7; [1],6.17
same,pIC50,hNav1.5; [2],< 5.30
same,pIC50,hNav1.3,6.82
CC[C@H](C)[C@@H]1NC(=O)[C@@H]2CSSC[C@@H]3NC(=O)[C@H](C(C)C)NC(=O)[C@H](CC(C)C)NC(=O)[C@H](CC(N)=O)NC(=O)[C@@H]4CCCN4C(=O)[C@H](CCCNC(=N)N)NC(=O)[C@H](CSSC[C@H](NC(=O)[C@@H](N)CC(=O)O)C(=O)N[C@@H](CC(C)C)C(=O)NCC(=O)N[C@@H](Cc4ccc(C)cc4)C(=O)N[C@@H](CCSC)C(=O)N[C@@H](CCCNC(=N)N)C(=O)N[C@@H](CCCCN)C(=O)N2)NC(=O)[C@H](CSSC[C@@H](C(=O)N[C@@H](CCCCN)C(=O)N[C@@H](Cc2ccc(O)cc2)C(=O)N[C@H](C(=O)N[C@@H](Cc2ccccc2)C(N)=O)C(C)C)NC(=O)[C@H](Cc2c[nH]c4ccccc24)NC(=O)[C@H](CCCCN)NC(=O)[C@H](Cc2c[nH]cn2)NC(=O)[C@H]([C@@H](C)O)NC(=O)[C@H](CCCNC(=N)N)NC(=O)[C@H](CO)NC3=O)NC(=O)[C@H](CCCCN)NC(=O)[C@H](CC(=O)O)NC(=O)[C@H](CC(N)=O)NC(=O)[C@H](CC(=O)O)NC(=O)[C@@H]2CCCN2C1=O [compound 686],pIC50,hNav1.7; [1],6.31
same,pIC50,hNav1.5; IWQ Use Nav1.5,< 5.30
same,pIC50,hNav1.3,6.74
